Here are results for six compounds from BindingDB's records for patent US20250346585 (Alexion Pharmaceuticals, 2025).

This assay concerns the target T1, Complement C1s subcomponent (Homo sapiens, UniProt P09871).
T1 sequence (P09871 whole entry): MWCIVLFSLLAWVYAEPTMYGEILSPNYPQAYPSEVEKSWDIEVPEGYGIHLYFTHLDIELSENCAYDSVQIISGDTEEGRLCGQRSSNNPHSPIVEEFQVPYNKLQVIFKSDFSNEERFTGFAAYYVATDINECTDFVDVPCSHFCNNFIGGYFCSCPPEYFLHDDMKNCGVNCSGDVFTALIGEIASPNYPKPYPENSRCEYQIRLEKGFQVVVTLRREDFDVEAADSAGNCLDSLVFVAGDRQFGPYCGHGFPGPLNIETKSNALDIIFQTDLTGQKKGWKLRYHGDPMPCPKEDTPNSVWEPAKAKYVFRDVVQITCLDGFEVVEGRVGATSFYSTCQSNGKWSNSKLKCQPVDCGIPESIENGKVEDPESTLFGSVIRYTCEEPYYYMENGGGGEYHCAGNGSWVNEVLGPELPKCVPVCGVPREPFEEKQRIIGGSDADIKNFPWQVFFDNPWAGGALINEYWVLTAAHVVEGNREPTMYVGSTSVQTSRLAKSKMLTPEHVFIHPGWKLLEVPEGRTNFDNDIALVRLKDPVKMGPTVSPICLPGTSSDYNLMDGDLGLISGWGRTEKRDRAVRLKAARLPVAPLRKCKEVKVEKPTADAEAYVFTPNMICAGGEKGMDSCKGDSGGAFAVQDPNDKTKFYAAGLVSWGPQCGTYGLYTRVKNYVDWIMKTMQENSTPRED
Put plainly: Human C1s Enzyme Assay. How it is done:
Human complement C1s enzyme (purified from human serum, Complement Technology, Inc.) at 1.16 nM final concentration was incubated with test compound at various concentrations for 5 min at room temperature in 50 mM Tris, 1 M NaCl, pH 7.5. A synthetic substrate Z-L-Lys-SBzl and DTNB (Ellman's reagent) were added to final concentrations of 100 μM each. Absorbance at 405 nm (A405) was recorded at 30 second intervals for 30 min using a microplate spectrophotometer. IC50 values were calculated by nonlinear regression of complement C1s reaction rates as a function of test compound concentration.

Structures are written as SMILES.

One may read the IC50 as the concentration that inhibits the measured activity by half. The low end stands for higher potency, the high end for lower potency. `N=C(N)c1cc(CNC(=O)[C@@H]2CC3(CN2C(=O)CNC(=O)c2ccc(-c4ccccc4)cn2)OCCO3)cs1` [US20250346585, Compound 144] displayed an IC50 below 100 nM.
The compound `CC(=O)NCCNC[C@@]12C[C@@H]1N(C(=O)CNC(=O)c1ccc3c(c1)-c1ccccc1C3(F)F)[C@H](C(=O)N[C@H](C)c1cc(C(=N)N)cs1)C2` [US20250346585, Compound 315] had a 50% inhibitory concentration (IC50) below 100 nM.
To `C[C@@H](NC(=O)[C@@H]1C[C@]2(CC(F)(F)F)C[C@@H]2N1C(=O)CNC(=O)c1ccc2c(c1)-c1ccccc1C2(F)F)c1cc(C(=N)N)cs1` [US20250346585, Compound 411] belongs above 1000 nM; to `C[C@@H](NC(=O)[C@H]1C[C@]2(CC(F)(F)F)C[C@@H]2N1C(=O)CNC(=O)c1ccc2c(c1)-c1ccccc1C2(F)F)c1cc(C(=N)N)cs1` [US20250346585, Compound 410], above 1000 nM.
In the case of `O=C(NCC(=O)N1CC2(C[C@H]1C(=O)NCc1cc(N3CCCC3=O)cs1)OCCO2)c1ccc(Oc2ccc(F)cc2)cc1` [US20250346585, Compound 290], the IC50 was above 1000 nM.
`C[C@@H](NC(=O)[C@@H]1C[C@@H](S(C)(=O)=O)CN1C(=O)CNC(=O)c1ccc2sc3ccccc3c2c1)c1cc(C(=N)N)cs1` [US20250346585, Compound 332] came in with an IC50 below 100 nM.
